Source: patent US4202891A, “15-Oxygenated sterol compounds and the use of such compounds to inhibit the biosynthesis of sterols” (priority 1977, dated 1980)

How the values were obtained:
HMG-CoA reductase = assay: Reduction of the activity of HMG-CoA reductase in L cell cultures; format: cell-based, mouse; conditions: read-out: Concentrations Required for 50% Reduction of the Activity of HMG-CoA Reductase
Protocol: The primary liver cell cultures were prepared from 16-day-old (C57BL/6J fetuses and grown in chemically defined medium (serum-free) as described in the above cited publications. The L cells, a subline of NCTC clone 929 mouse fibroblasts, were grown in chemically defined medium (serum-free) as described in the publications. These L cells are transformed fibroblasts which are regarded as malignant since they will grow as tumors if injected into the mouse strain from which they were initially obtained.
The preparation of steroid-containing media, procedures for assays of the conversion of [1-^14 C]acetate into digitonin-precipitable sterols, fatty acids, and CO2 and methods for the measurement of DNA, protein, and HMG-CoA reductase were as described in the published articles. L cell cultures were preincubated with the 15-oxygenated sterols and their derivatives for 4 hours, then [1-^14 C]acetate was added at a concentration of 4 μmoles per ml (4 μCi per ml); or the L cell cultures were incubated for 5 hours with the 15-oxygenated sterols before they were harvested for determination of microsomal HMG-CoA reductase activity.
A number of the 15-oxygenated sterols have also been tested with respect to their effects on the activity and/or levels of the enzyme HMG-CoA reductase (3-hydroxy-3-methylglutaryl coenzyme A reductase) in the L cells and in the liver cells. As noted previously, this enzyme catalyzes the reduction of 3-hydroxy-3-methylglutaryl coenzyme A to yield mevalonic acid, an essential intermediate in the biosynthesis of sterols and of a number of other essential compounds in cells.
Using the technique described by Kandutsch and Chen in the article cited in the previous example, the concentrations of various 15-oxygenated sterols required to reduce the levels of activity of HMG-CoA reductase by 50% was determined in the cells of the L cells in culture and of the primary cultures of liver cells.

plasma cholesterol = assay: Plasma cholesterol concentration in mice, ketone in diet (Example 47); format: in vivo, mouse; conditions: 0.2% in diet; after eight days; 7-week-old mice
Protocol: Another dietary experiment with 5β-cholest-8(14)-en-3β-ol-15-one was performed using 7-week-old mice. Five mice were fed the ketone at a level of 0.2% in a diet which was essentially free of animal sterols for eight days. Five control pair-fed mice were fed the same diet to which the ketone was not added. The mean plasma cholesterol concentration in the ketone group after the eight day experiment was 35.8(±3.6, standard error of mean) mg per 100 ml of plasma while the corresponding value for the pair-fed group was 114.4 (±3.4, standard error of mean). It should be noted that very closely matched pairfeeding is difficult to perform in mice of this age due to the small amounts of food which are consumed and which must be accurately determined in such experiments.

[1] = Food consumption of rats, sterol in diet; format: in vivo, rat (male, Sprague-Dawley)
Source text: (§1) Male rats of the Sprague-Dawley strain were purchased from Sprague-Dawley Farms (Madison, Wisconsin). The rats were maintained on a light (7:00 A.M.-5:30 P.M.)--dark (5:30 P.M.-7:00 A.M.) cycle and fed a Cholesterol Free Test Diet (United States Biochemical Corporation, Cleveland, Ohio) for a period of 13 days prior to the initiation of the experimental period. Six days prior to the initiation of the experimental period blood samples were taken for assay of serum cholesterol concentration and, based upon the results of these analyses, rats were divided into 3 groups with approximately the same mean serum cholesterol concentration. The rats were then individually housed in metabolic cages (Econo-Metabolism Units, Maryland Plastics, New York, New York) for 6 days prior to the initiation of the experimental period. The animals were maintained on the light-dark cycle throughout the experimental period.
(§2) The individual animals were weighed daily throughout the experimental period. Food consumption by the individual rats was similarly recorded daily. No significant spillage of the food or contamination of the food by feces or urine was possible due to the nature of the matabolic cage and the food receptacles utilized.
(§3) 5α-Cholest-8(14)-en-3β-ol-15-one (500 mg), prepared and purified as described in Example 1, was added in small portions to 500 g of the Cholesterol Free Test Diet in a 2 liter glass stoppered bottle. After each addition of the sterol to the diet, the bottle was rolled and shaken thoroughly. The resulting 0.1% diet with respect to the 5α-cholest-8(14)-en-3β-ol-15-one was stored at 4° C. Prior to use in feeding, the diet was allowed to warm to room temperature (~25° C.).
(§4) 2. Ketone group--7 rats with free access to the Cholesterol Free Test Diet containing 0.1% 5α-cholest-8(14)-en-3β-ol-15-one.
(§5) Another experiment following essentially the procedure of Example 43 was performed in which the 5α-cholest-8(14)-en-3β-ol-15-one was incorporated into the Cholesterol Free Test Diet at a concentration of 0.2%.

[2] = Body weight of rats, sterol in diet; format: in vivo, rat (male, Sprague-Dawley)
Source text: as §1, §2, §3, §4, §5

## CC(C)CCC[C@@H](C)[C@H]1CC(=O)C2=C3CC[C@H]4C[C@@H](O)CC[C@]4(C)[C@H]3CC[C@@]21C [5α-Cholest-8(14)-en-3β-ol-15-one, 5α-cholest-8(14)-en-3β-ol-15-one]
HMG-CoA reductase
  IC50: 300 nM
Plasma cholesterol
  mean plasma cholesterol concentration (standard error of mean): 35.8 mg per 100 ml of plasma
[1]; 0.1% in diet
  food consumption relative to ad libidum group (in words): significantly less than that of the rats in the ad libidum group
[1]; 0.1% in diet, day 0
  Food consumption: 10.4 ± 0.7 g
[1]; 0.1% in diet, day 1
  Food consumption: 5.1 ± 0.3 g
[1]; 0.1% in diet, day 2
  Food consumption: 7.1 ± 0.3 g
[1]; 0.1% in diet, day 3
  Food consumption: 5.5 ± 0.3 g
[1]; 0.1% in diet, day 4
  Food consumption: 7.1 ± 0.5 g
[1]; 0.1% in diet, day 5
  Food consumption: 5.8 ± 0.5 g
[1]; 0.1% in diet, day 6
  Food consumption: 6.6 ± 0.5 g
[1]; 0.1% in diet, day 7
  Food consumption: 7.5 ± 0.5 g
[1]; 0.2% in diet
  food consumption relative to ad libidum group (in words): significantly less than that of the rats in the ad libidum group
[1]; 0.2% in diet, day 0
  Daily food consumption: 7.2 ± 0.6 g
[1]; 0.2% in diet, day 1
  Daily food consumption: 4.4 ± 1.1 g
[1]; 0.2% in diet, day 2
  Daily food consumption: 4.8 ± 0.4 g
[1]; 0.2% in diet, day 3
  Daily food consumption: 4.8 ± 0.2 g
[1]; 0.2% in diet, day 4
  Daily food consumption: 5.5 ± 0.4 g
[1]; 0.2% in diet, day 5
  Daily food consumption: 5.5 ± 0.3 g
[1]; 0.2% in diet, day 6
  Daily food consumption: 5.4 ± 0.2 g
[1]; 0.2% in diet, day 7
  Daily food consumption: 5.1 ± 0.2 g
[1]; 0.2% in diet, day 8
  Daily food consumption: 4.3 ± 0.6 g
[2]; 0.1% in diet, day 0
  Body weight: 130.4 ± 4.4 g
[2]; 0.1% in diet, day 1
  Body weight: 126.6 ± 4.8 g
  Percentage change in weight from initial in individual rats: -3.0 ± 0.7%
[2]; 0.1% in diet, day 2
  Body weight: 121.4 ± 4.4 g
  Percentage change in weight from initial in individual rats: -7.0 ± 0.7%
[2]; 0.1% in diet, day 3
  Body weight: 120.6 ± 4.6 g
  Percentage change in weight from initial in individual rats: -7.7 ± 0.7%
[2]; 0.1% in diet, day 4
  Body weight: 118.5 ± 4.0 g
  Percentage change in weight from initial in individual rats: -9.1 ± 0.7%
[2]; 0.1% in diet, day 5
  Body weight: 119.4 ± 4.3 g
  Percentage change in weight from initial in individual rats: -8.5 ± 0.5%
[2]; 0.1% in diet, day 6
  Body weight: 118.9 ± 4.8 g
  Percentage change in weight from initial in individual rats: -8.7 ± 1.0%
[2]; 0.1% in diet, day 7
  Body weight: 116.5 ± 4.9 g
  Percentage change in weight from initial in individual rats: -10.8 ± 1.3%
[2]; 0.1% in diet, day 8
  Percentage change in weight from initial in individual rats: -10.2 ± 0.9%
[2]; 0.1% in diet, day 8, listed as Ketone
  Body weight: 117.3 ± 4.7 g
[2]; 0.1% in diet, day 8, listed as ketone
  Body weight: 117.3 g
[2]; 0.2% in diet, day 0
  Body weight: 152.3 ± 5.5 g
[2]; 0.2% in diet, day 1
  Body weight: 151.3 ± 4.7 g
[2]; 0.2% in diet, day 2
  Body weight: 145.4 ± 4.9 g
[2]; 0.2% in diet, day 3
  Body weight: 139.0 ± 4.8 g
[2]; 0.2% in diet, day 4
  Body weight: 137.4 ± 4.9 g
[2]; 0.2% in diet, day 5
  Body weight: 134.5 ± 4.5 g
[2]; 0.2% in diet, day 6
  Body weight: 130.7 ± 5.1 g
[2]; 0.2% in diet, day 7
  Body weight: 127.7 ± 5.2 g
[2]; 0.2% in diet, day 8, listed as Ketone
  Body weight: 122.3 ± 5.8 g
[2]; 0.2% in diet, day 8, listed as ketone
  Body weight: 122.3 g
